This is an account of results in patent US20200370087A1, “METHOD FOR DETERMINING MICROBIAL SUSCEPTIBILITY TO ANTIBIOTIC AGENTS” (Ascilion AB, priority 2017, published 2020).

In the test the test system is E. coli ATCC 25922. In words: Qualitative glucose consumption test, bacteria from plated cultures (Example 2, Table 6). The following applies: E. coli ATCC 25922 from plated culture, antibiotic 256 μg/mL. The format is cell-based. As to the method:
If the susceptibility score is a qualitative susceptibility score classifying the microorganism as “susceptible”, or “non-susceptible” to an antibiotic agent the answer could be given in as little as 1 hour. Bacteria from plated cultures were suspended in cation adjusted Mueller-Hinton broth (SVA, Uppsala, Sweden) supplemented with glucose. Consequently, the concentration of microorgansims was typically two orders of magnitude higher as compared to Example 1. […] The tested microorganisms was one strain of E. faecium, two strains of E. coli and one S. aureus.

With gentamicin, the qualitative susceptibility score result is listed as “susceptible”. Under “t = 15”, the “glucose concentration, t = 15” value is 156. The “glucose concentration, t = 30” value (t = 30) worked out at 155. The “glucose concentration, t = 45” value (t = 45) is 136.
